In paper PMC8597734 (Antimicrobial Agents and Chemotherapy, 2021):
In brackets after ≈: the same amount, converted by molar mass. Where two headings read alike, the source gives them in different places.

Experiments:
[1] = test system: M. tuberculosis H37Rv ATCC 27294; experiment: microbe, parasite or virus in culture; assay type: cell-based; details: Mycobacterium tuberculosis, 168 h
[2] = test system: M. avium 11; experiment: microbe, parasite or virus in culture; assay type: cell-based; details: Mycobacterium avium, 11, 96 h
[3] = test system: M. intracellulare ATCC 13950; experiment: microbe, parasite or virus in culture; assay type: cell-based; details: Mycobacterium intracellulare, ATCC13950, 96 h
[4] = test system: M. abscessus subsp. abscessus M9; experiment: microbe, parasite or virus in culture; assay type: cell-based, Mycobacterium abscessus; details: Mycobacteroides abscessus, 72 h
[5] = test system: M. abscessus subsp. abscessus M199; experiment: microbe, parasite or virus in culture; assay type: cell-based, Mycobacterium abscessus; details: Mycobacteroides abscessus, 72 h
[6] = test system: M. abscessus subsp. abscessus M404; experiment: microbe, parasite or virus in culture; assay type: cell-based, Mycobacterium abscessus; details: Mycobacteroides abscessus, 72 h
[7] = test system: M. abscessus subsp. abscessus M422; experiment: microbe, parasite or virus in culture; assay type: cell-based, Mycobacterium abscessus; details: Mycobacteroides abscessus, 72 h
[8] = test system: M. abscessus subsp. bolletii M232; experiment: microbe, parasite or virus in culture; assay type: cell-based, Mycobacterium abscessus; details: Mycobacteroides abscessus, 72 h
[9] = test system: M. abscessus subsp. abscessus K21; experiment: microbe, parasite or virus in culture; assay type: cell-based, Mycobacterium abscessus; details: Mycobacteroides abscessus, 72 h
[10] = test system: M. abscessus Bamboo; experiment: MIC and MBC determination in culture tubes (planktonic); assay type: cell-based, Mycobacterium abscessus; details: Mycobacteroides abscessus
[11] = test system: anaerobic, nonreplicating M. abscessus Bamboo; experiment: MBC determination under anaerobic conditions; assay type: cell-based, Mycobacterium abscessus; details: 48 h drug exposure
[12] = test system: M. abscessus Bamboo RM3 (GyrA D91N); experiment: microbe, parasite or virus in culture; assay type: cell-based, Mycobacterium abscessus
[13] = test system: M. abscessus Bamboo RM4 (GyrA D91G); experiment: microbe, parasite or virus in culture; assay type: cell-based, Mycobacterium abscessus
[14] = test system: M. abscessus ATCC 19977 MXF_R1 (GyrA D96Y); experiment: microbe, parasite or virus in culture; assay type: cell-based, Mycobacterium abscessus; details: Mycobacteroides abscessus, ATCC19977
[15] = target: T1, human serum albumin (Homo sapiens, UniProt P02768); experiment: Drug binding to human serum albumin (HSA HPLC column); assay type: in vitro ADME; details: immobilized human serum albumin HPLC column, pH 7.4, read-out: Protein binding (converted)
T1 construct: purchased Chiral Technologies Ltd., France

[16] = Stability in microsomes (intrinsic clearance); assay type: in vitro ADME, mouse
Procedure: (§1) Intrinsic clearance (CLi) values were determined in mouse and human liver microsomes. Test compounds (final concentration 0.5 μM) were incubated at 37°C for 30 min in 50 mM potassium phosphate buffer (pH 7.4) containing 0.5 mg microsomal protein/ml. The reaction was started by addition of cofactor NADPH. At 10 different time points (from zero to 30 min) an aliquot (90 μl) was taken, quenched with acetonitrile-methanol containing an appropriate internal standard, centrifuged and analyzed by LC-MS/MS. The intrinsic clearance (CLi) was determined using the following equation: CLi=k*(ml of incubation/mg microsomal protein)*(mg microsomal protein/g liver)
(§2) Where k is the turn-over rate constant of the ln (% remaining compound) versus time regression and mg microsomal protein/g liver is 52.5 for both mouse and human.

[17] = Stability in microsomes (intrinsic clearance); assay type: in vitro ADME, human
Procedure: as §1, §2

[18] = Mouse oral pharmacokinetics; assay type: in vivo; details: for concentration at 24 h / AUC(0-t) / half-life: female; for concentration at 24 h: CD-1, mouse, below limit of quantitation (LOQ), read-out: plasma concentration at the 24h time point; for AUC(0-t) / half-life: mouse
Procedure: All animal studies were ethically reviewed and carried out in accordance with the Institutional Animal Care and Use Committee of Hackensack Meridian Health. Six-week-old CD-1 female mice (20–25 g) were used in pharmacokinetic studies. Groups of 3 mice received a single oral dose of EC/11716 formulated in 0.4% methylcellulose, at either 50, 200 or 400 mg/kg. Aliquots of 20 μl of blood were collected from the lateral tail vein by serial puncture from each mouse at 0.5, 1, 3, 5, 7 and 24h post dose in K2EDTA tubes. Plasma was recovered after centrifugation and stored at −80°C until analyzed by high pressure liquid chromatography coupled to tandem mass spectrometry.
Neat 1 mg/ml DMSO stocks of EC/11716 were serial diluted in 50/50 Acetonitrile water to create standard curves and quality control spiking solutions. Standards and QCs were created by adding 10μls of spiking solutions to 90μls of drug free plasma (CD-1 K2EDTA Mouse, Bioreclamation IVT). 10μls of control, standard, QC, or study sample were added to 100 μl of Acetonitrile/Methanol 50/50 protein precipitation solvent containing 10 ng/ml of the internal standard Verapamil (Sigma-Aldrich). Extracts were vortexed for 5 min and centrifuged at 4000 RPM for 5 min. 75 μl of supernatant was transferred for HPLC-MS/MS analysis and diluted with 75 μl of Milli-Q deionized water.
LC-MS/MS analysis was performed on a Sciex Applied Biosystems Qtrap 6500+ triple-quadrupole mass spectrometer coupled to a Shimadzu Nexera X2 UHPLC system to quantify each drug in plasma. Chromatography was performed on a Phenomenex Luna Omega column (2.1 × 100 mm; particle size, 3 μm) using a reverse phase gradient. Milli-Q deionized water with 0.1% formic acid was used for the aqueous mobile phase and 0.1% formic acid in acetonitrile for the organic mobile phase. Multiple-reaction monitoring of parent/daughter transitions in electrospray positive-ionization mode was used to quantify the analytes. The following MRM transitions were used for EC/11716 (458.09/203.10) and Verapamil (455.40/165.00). Sample analysis was accepted if the concentrations of the quality control samples were within 20% of the nominal concentration. Data processing was performed using Analyst software (version 1.6.2; Applied Biosystems Sciex).

[19] = mice, oral 400 mg/kg, from PK profiles and potency data

T1 sequence (P02768 25-609): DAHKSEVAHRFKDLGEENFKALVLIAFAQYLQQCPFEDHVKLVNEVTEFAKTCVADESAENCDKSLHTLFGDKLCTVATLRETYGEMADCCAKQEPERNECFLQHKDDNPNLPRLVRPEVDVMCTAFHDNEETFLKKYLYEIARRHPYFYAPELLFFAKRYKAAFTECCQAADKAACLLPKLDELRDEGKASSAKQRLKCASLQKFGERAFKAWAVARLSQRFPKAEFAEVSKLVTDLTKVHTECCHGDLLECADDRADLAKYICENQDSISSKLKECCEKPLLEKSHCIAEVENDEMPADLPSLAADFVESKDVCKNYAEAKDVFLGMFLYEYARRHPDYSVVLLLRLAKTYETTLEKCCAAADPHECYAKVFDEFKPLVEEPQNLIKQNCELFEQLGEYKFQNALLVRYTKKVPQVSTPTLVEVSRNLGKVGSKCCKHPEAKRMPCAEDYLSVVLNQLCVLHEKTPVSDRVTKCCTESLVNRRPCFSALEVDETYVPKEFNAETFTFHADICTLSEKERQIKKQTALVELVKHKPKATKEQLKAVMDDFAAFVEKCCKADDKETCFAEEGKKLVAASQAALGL

COc1cnc2ccc(=O)n(CCN3CCC(NCc4cnc(CO)c(Cl)c4)CC3)c2c1 [EC/11716]
MIC [1]: 0.38 µM (≈ 0.174 µg/mL)
MIC [2]: 1.1 µM (≈ 0.504 µg/mL)
MIC [3]: 3.3 µM (≈ 1.51 µg/mL)
MIC [4]: 2.9 µM (≈ 1.33 µg/mL)
MIC [5]: 3.8 µM (≈ 1.74 µg/mL)
MIC [6]: 2.6 µM (≈ 1.19 µg/mL)
MIC [7]: 1.8 µM (≈ 0.824 µg/mL)
MIC [8]: 2.5 µM (≈ 1.14 µg/mL)
MIC [9]: 3 µM (≈ 1.37 µg/mL)
MBC ([10]; 0 h, 10-fold reduction in CFU/ml vs day 0): 3.1 µM (≈ 1.42 µg/mL)
MIC ([10]; 48 h, day 2): 1.5 µM (≈ 0.687 µg/mL)
MBC [11]: >100 µM
MBC ([11]; Mycobacteroides abscessus): > 100 µM
MIC [12]: >100 µM
MIC ([12]; Mycobacteroides abscessus): > 100 µM
MIC [13]: >100 µM
MIC ([13]; Mycobacteroides abscessus): > 100 µM
MIC [14]: ≤ 10 µM
fraction unbound [15]: 0.505
Mouse In vitro CLint ([16]; mouse hepatic microsomes, free base form): 1.6 ml/min/g tissue
mouse microsomal clearance ([16]; mouse microsomes): 1.6 ml/min/g protein
Human In vitro CLint ([17]; human hepatic microsomes, free base form): < 0.3 ml/min/g tissue
Human microsomal clearance ([17]; human microsomes): < 0.3 ml/min/g protein
DNAUC[0-24]_50 mg/kg ([18]; CD-1 mice, oral 50 mg/kg, dose-normalized AUC, mean (SD)): 58 (16) ng*h/ml per mg/kg
Tmax_50 mg/kg ([18]; CD-1 mice, oral 50 mg/kg, range of values): 0.5 to 1.0 h
DNAUC[0-24]_200 mg/kg ([18]; CD-1 mice, oral 200 mg/kg, dose-normalized AUC, mean (SD)): 167 (24) ng*h/ml per mg/kg
Tmax_200 mg/kg ([18]; CD-1 mice, oral 200 mg/kg, range of values): 0.5−1.0 h
DNAUC[0-24]_400 mg/kg ([18]; CD-1 mice, oral 400 mg/kg, dose-normalized AUC, mean (SD)): 202 (8) ng*h/ml per mg/kg
Tmax_400 mg/kg ([18]; CD-1 mice, oral 400 mg/kg, range of values): 0.5 to 1.0 h
Cmax_50 mg/kg ([18]; CD-1 mice, single oral dose 50 mg/kg, plasma, mean (SD)): 632 (430) ng/ml
Cmax_200 mg/kg ([18]; CD-1 mice, single oral dose 200 mg/kg, plasma, mean (SD)): 7,177 (618) ng/ml
Cmax_400 mg/kg ([18]; CD-1 mice, single oral dose 400 mg/kg, plasma, mean (SD)): 16,767 (8,281) ng/ml
concentration at 24 h ([18]; plasma, mice, oral 50 mg/kg): < 20 ng/mL
concentration at 24 h ([18]; plasma, mice, oral 200 mg/kg): < 20 ng/mL
AUC(0-t) ([18]; plasma, CD-1 mice, oral 50 mg/kg, mean (SD), read-out: AUC[0-24]_50 mg/kg): 2900 ng·h/mL
half-life ([18]; plasma, CD-1 mice, oral 50 mg/kg, mean (SD), read-out: Elimination T1/2 _50 mg/kg (converted)): 2.7 h
AUC(0-t) ([18]; plasma, CD-1 mice, oral 200 mg/kg, mean (SD), read-out: AUC[0-24]_200 mg/kg): 33400 ng·h/mL
half-life ([18]; plasma, CD-1 mice, oral 200 mg/kg, mean (SD), read-out: Elimination T1/2 _200 mg/kg (converted)): 1.7 h
AUC(0-t) ([18]; plasma, CD-1 mice, oral 400 mg/kg, mean (SD), read-out: AUC[0-24]_400 mg/kg): 80700 ng·h/mL
half-life ([18]; plasma, CD-1 mice, oral 400 mg/kg, mean (SD), read-out: Elimination T1/2 _400 mg/kg (converted)): 3.6 h
time above MIC of M. abscessus K21 planktonic cultures [18, 19]: 67%
time above MIC of M. abscessus biofilms [18, 19]: greater than 70%
